Test results reported in patent US9238631B2, “Radiolabeled amino acids for diagnostic imaging” (PIRAMAL IMAGING SA, priority 2011, dated 2016).

Columns and labels:
[1] = system: A549 tumor; conditions: cited from earlier work
[2] = system: NCI-H460 (human NSCLC) cells; experiment: Time-dependent uptake and blocking of [^18F]-41 in NCI-H460 cells; assay type: cell-based
Protocol: NCI-H460 (human NSCLC) cells, grown adherently in 48 well plates were used for these experiments. Approximately 100.000 cells were incubated in PBS-buffer containing 0.1% BSA with 0.25 MBq [^18F]-41 for up to 60 minutes. A time-dependent uptake was observed during the 60 min incubation period. Approximately 13% of applied dose was taken up by the cells during the 60 min incubation period (FIG. 6). For the blocking study [^18F]-41 was co-incubated with 1 mM 41 for 30 minutes. After this time, the cell bound radioactivity was determined.

[3] = system: reactive lymph nodes; experiment: PET uptake in inflammatory lesions (streptozotocin-induced reactive lymph nodes); assay type: in vivo, mice; conditions: dynamic PET 1 h, 3 days after streptozotocin
Protocol: To test the specificity of compounds from the present invention, compound [^18F]-41 was examined in an animal model of reactive lymph nodes in comparison to the clinically commonly used PET tracer FDG. Therefore, female immunocompetent NMRI mice (10 weeks old) were injected with streptozotocin (500 μg/40 μL PBS) in the right hind limb to induce an inflammatory reaction in the right popliteal and additional lymph nodes. PET imaging studies were performed 3 days after Streptozotocin injection. PET images were acquired dynamically for 1 h after injection of approximately 5-10 MBq. After the imaging study, region-of-interest (ROI) analysis was performed in the popliteal, inguinal and iliacal lymph nodes. At least 3 animals were examined per tracer.

[4] = system: NCI-H460 (human NSCLC) cells; experiment: Cell uptake studies: 30 min uptake in H460 cells; assay type: cell-based; conditions: 0.25 MBq tracer, PBS 0.1% BSA
Protocol: For determination of the biological activity, the F18 labeled derivatives were used as tracers in cell uptake experiments. NCI-H460 (human NSCLC) cells, grown adherently in 48 well plates were used for these uptake-experiments. Approximately 100.000 cells were incubated with 0.25 MBq of the tracers for 30 min in PBS-buffer containing 0.1% BSA. After this time, the cell-bound radioactivity was determined using a γ-counter.

[5] = target: T1, xCT (SLC7A11) (Homo sapiens, UniProt Q9UPY5); experiment: Competition profile indicating uptake via xCT (SLC7A11); assay type: cell-based; conditions: co-incubation with 1 mM cold competitors, NCI-H460 cells
T1 construct: NCI-H460 tumor cells were co-incubated with the F-18 labeled tracer and several cold derivatives; endogenous in cells; host or cells: NCI-H460 tumor cells
T1 sequence (Q9UPY5 1-501): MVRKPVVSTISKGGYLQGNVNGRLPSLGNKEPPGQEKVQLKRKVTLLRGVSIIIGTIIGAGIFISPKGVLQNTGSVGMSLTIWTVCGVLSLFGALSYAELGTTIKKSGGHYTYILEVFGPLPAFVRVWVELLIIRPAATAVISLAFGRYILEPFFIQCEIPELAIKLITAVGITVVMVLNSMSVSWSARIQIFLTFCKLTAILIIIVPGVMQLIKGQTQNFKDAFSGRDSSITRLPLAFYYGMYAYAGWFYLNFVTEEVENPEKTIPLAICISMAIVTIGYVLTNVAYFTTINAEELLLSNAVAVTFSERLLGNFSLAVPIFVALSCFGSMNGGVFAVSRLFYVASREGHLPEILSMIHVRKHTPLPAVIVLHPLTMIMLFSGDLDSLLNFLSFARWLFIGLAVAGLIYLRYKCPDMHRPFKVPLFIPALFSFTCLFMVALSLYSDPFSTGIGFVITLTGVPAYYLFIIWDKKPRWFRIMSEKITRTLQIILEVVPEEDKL
T1 sequence (P08195 1-529 partner): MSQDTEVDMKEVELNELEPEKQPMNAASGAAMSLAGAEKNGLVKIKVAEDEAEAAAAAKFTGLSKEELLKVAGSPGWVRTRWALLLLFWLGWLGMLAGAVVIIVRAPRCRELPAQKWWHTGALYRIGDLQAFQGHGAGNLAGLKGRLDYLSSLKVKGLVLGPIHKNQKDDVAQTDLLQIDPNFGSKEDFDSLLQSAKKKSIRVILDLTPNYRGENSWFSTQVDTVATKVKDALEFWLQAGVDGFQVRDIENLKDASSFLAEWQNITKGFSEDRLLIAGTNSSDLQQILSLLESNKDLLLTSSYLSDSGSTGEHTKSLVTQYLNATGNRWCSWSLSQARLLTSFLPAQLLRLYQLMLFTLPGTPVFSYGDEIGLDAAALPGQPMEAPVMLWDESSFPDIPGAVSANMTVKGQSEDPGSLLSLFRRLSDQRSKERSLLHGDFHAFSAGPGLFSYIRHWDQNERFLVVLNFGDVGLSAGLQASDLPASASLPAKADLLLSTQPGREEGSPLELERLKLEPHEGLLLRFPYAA
Protocol: For determination of the responsible uptake mechanism, NCI-H460 tumor cells were co-incubated with the F-18 labeled tracer and several cold derivatives. These derivatives were used at a concentration of 1 mM, which is a large excess compared to the tracer. L-Glutamic acid, L-cystine, Carboxyphenylglycine (CPG) were used as competitors. In addition, also D-Glutamic acid, as well as L-aspartic acid and D-aspartic acid were used in this competition experiments. […] The same experiments were performed using [^18F]-1, [^18F]-4, [^18F]-9, [^18F]-8, [^18F]-25 and [^18F]-22.

[6] = system: NCI-H460 tumor; experiment: In vivo biodistribution in NCI-H460 tumor bearing mice; conditions: for T/Blood / T/Muscle: 1 h post injection
Protocol: (§1) To test the pharmacokinetic properties of compounds from the present invention, all F18-labeled compounds were examined by biodistribution studies in NCI-H460 tumor bearing mice. Female NMRI (nu/nu) mice were inoculated with 5×10^6 NCI-H460 tumor cells 8 to 10 days before the biodistribution studies. 185 kBq of activity of the fluorinated compound was injected and at least n=3 mice were used for every time point. After injection of the F18-labeled compound, mice were sacrificed at defined time-points. All organs were removed and radioactivity was determined using a γ-counter.
To compare the tumor uptake and retention of radioactivity of different ^18F-labeled derivatives from the present invention, biodistribution studies were performed in NCI-H460 tumor bearing NMRI (nu/nu) mice as described above.
To compare the kidney clearance of several ^18F-labeled derivatives from the present invention, biodistribution studies were performed in NCI-H460 tumor bearing female NMRI (nu/nu) mice as described above. […] After 2 h p.i., less than 1% ID/g can be found in the kidneys.
For comparison of pancreas uptake and clearance of several ^18F-labeled derivatives from the present invention, biodistribution studies were performed in NCI-H460 tumor bearing NMRI (nu/nu) mice as described above. […] After 2 h p.i., less than 2% ID/g can be found in the pancreas.
as §1, with “and” for “for every time point. After injection of the F18-labeled compound, mice were”, “time-points raning from 15 min pi up to 2 h p.i.” for “time-points.”, “γ-counter. […] High tumor uptake values of >3% ID/g were obtained with various compounds from the present invention.” for “γ-counter.”

[7] = system: NCI-H460 tumor; experiment: PET imaging in NCI-H460 tumor bearing nude-rats; assay type: in vivo; conditions: PET ROI analysis, 1 h p.i.
Protocol: c) Beside PET-imaging studies in mice, also the imaging properties of [^18F]-12 in rats were examined. NCI-H460 tumor cells were inoculated into the right flank of nude-rats (RH-Foxn1 nu/nu) 8 to 10 days before the PET study. PET images were acquired at 60 min after injection of approximately 10 MBq for 10 minutes. The H460 tumor was nicely visible (0.9% ID/g as determined by ROI analysis). Beside some minor uptake into the liver and kidneys due to the excretion of the compound, no uptake into other non-target tissues was observed.
To test the imaging properties, compounds from the present invention were evaluated in PET imaging studies using tumor bearing rats. NCI-H460 tumor cells were inoculated into the right flank of nude-rats (RH-Foxn1 nu/nu) 8 to 10 days before the PET study. PET images were acquired at 60 min after injection of approximately 10 MBq for 10 minutes. After the imaging study, region-of-interest (ROI) analysis was performed and activity in tumor, liver and kidney was determined. […] High tumor uptake values of >1% […] in this rat model were obtained with various compounds from the present invention. A favorable clearance profile of all compounds enables excellent tumor detection in PET imaging studies in tumor bearing rats.

[8] = system: H460 cells; experiment: Retention of radioactivity in H460 cells (efflux); assay type: cell-based, human; conditions: 30 minute efflux period after 30 minutes loading
Protocol: The retention of radioactivity in tumor cells was examined. Therefore. H460 cells were loaded with 0.25 MBq of the respective tracer for 30 minutes in PBS buffer, containing 0.1% BSA. After this uptake, the buffer was removed and the cells were washed with PBS. The cells were then reincubated with new PBS buffer, without radioactivity for up to 30 minutes. The release of activity into the supernatant as well as the retention of activity inside the cells was examined. It was discovered, that only a limited amount of activity was released into the supernatant during the 30 minute efflux period. More than 80% of the activity were retained inside the tumor cells during the 30 minute incubation under these efflux conditions.
In addition, the retention of radioactivity in tumor cells was examined. Therefore. H460 cells were loaded with 0.25 MBq of [^18F]-41 for 30 minutes in PBS buffer, containing 0.1% BSA. After this uptake, the buffer was removed and the cells were washed with PBS. The cells were then reincubated with new PBS buffer without radioactivity for 30 min. The release of activity into the supernatant as well as the retention of activity inside the cells was determined. It was discovered, that only a limited amount of activity was released into the supernatant during the 30 minute efflux period. […]

| SMILES | time-course of activity in the reactive lymph nodes [3] | Kidney (% ID/g at 1 h p.i.) [6] [% ID/g] | Liver (% ID/g at 1 h p.i.) [6] [% ID/g] | Pancreas (% ID/g at 1 h p.i.) [6] [% ID/g] | Tumor (% ID/g at 1 h p.i.) [6] [% ID/g] | Urine (% ID at 1 h p.i.) [6] [% ID] | T/Blood [6] | T/Muscle [6] | Kidney (% ID/g at 1 h p.i.) [7] [% ID/g] | Liver (% ID/g at 1 h p.i.) [7] [% ID/g] | Tumor (Max % ID/g at 1 h p.i.) [7] [% ID/g] | Tumor (Mean % ID/g at 1 h p.i.) [7] [% ID/g] | other results |
| --- | --- | --- | --- | --- | --- | --- | --- | --- | --- | --- | --- | --- | --- |
| N[C@@H](CC(CCC[18F])C(=O)O)C(=O)O (stereo partly shown) [4-(3-[^18F]fluoropropyl)glutamic acid] |  |  |  |  |  |  |  |  |  |  |  |  | Kidney uptake ([1]; 30 min post injection): 6.4 % ID/g; pancreas uptake ([1]; 30 min post injection): 8.5 % ID/g; tumor uptake ([1]; 1 h post injection): 1.6 % ID/g |
| N[C@@H](CCC(Cc1ccc(OCF)cc1)C(=O)O)C(=O)O (stereo partly drawn) [Example 41, (2S)-2-amino-5-[4-(fluoromethoxy)benzyl]hexanedioic acid] |  |  |  |  |  |  |  |  |  |  |  |  | blocking of [^18F]-41 uptake ([2]; co-incubation with 1 mM 41, 30 minutes): strong competitor |
| OC[C@H]1OC(O)[C@H]([18F])[C@@H](O)[C@@H]1O (stereo partly shown) [FDG, 2-[^18F]fluorodeoxyglucose, reference compound] | remained almost constant |  |  |  |  |  |  |  |  |  |  |  |  |
| N[C@@H](CC(Cc1ccc(O[C@H]2C[C@@H]([18F])C2)cc1)C(=O)O)C(=O)O (stereo partly drawn) [[^18F]-22, 4-{4-[(cis-3-[^18F]Fluorocyclobutyl)oxy]benzyl}-L-glutamic acid] |  | 1.8 ± 0.6 | 4.1 ± 0.8 | 0.63 ± 0.04 | 1.3 ± 0.5 | 64.9 ± 4.3 | 5.1 | 32.3 | 0.5 | 0.6 | 0.9 | 0.3 | 30 min uptake into H460 cells [%/100.000 cells] [4]: 4.2 ± 0.1 %/100.000 cells; competition profile / uptake mechanism of the tracer [5]: identical competition profile |
| N[C@@H](CCC(Cc1ccc(OC[18F])cc1)C(=O)O)C(=O)O (stereo partly drawn) [[^18F]-41, (2S)-2-amino-5-[4-(fluoromethoxy)benzyl]hexanedioic acid] | wash-out of radioactivity | 3.1 ± 0.4 | 0.3 ± 0.1 | 1.0 ± 0.5 | 6.8 ± 1.3 | 69.3 ± 14.5 | 26.3 | 90.6 | 0.5 | 0.4 | 3.7 | 1.6 | activity retained inside the tumor cells [8]: More than 80%; tumor uptake and retention (summary statement) ([6]; mouse, in vivo): high tumor uptake and retention; uptake of applied dose by the cells ([2]; 0.25 MBq, 60 min incubation, approx. 100.000 cells): Approximately 13 % of applied dose; initial uptake in the inflammatory lesions [3]: reduced compared to FDG |
